Measured values reported in patent US20120020989A1, “METHODS OF TREATING COLORECTAL CANCER” (KYOWA HAKKO KIRIN CO., LTD., priority 2010, published 2012).

Columns and labels:
[1] = tested on: LS174T; assay: Nude rat LS174T subcutaneous xenograft model, tumor volume
[2] = tested on: LS174T; assay: SCID mouse LS174T intraperitoneal xenograft model, surviving period; format: in vivo; conditions: LS174T i.p., CPT-11 10 mg/kg; for surviving period median (median survival time: MST): N26 antibody 5 mg/kg, 5-FU 50 mg/kg, caudal vein once a week x4, adjuvant group 24 days; for prolongation of surviving period in comparison with the adjuvant alone group: log-rank test, N26 5 mg/kg, 5-FU 50 mg/kg once a week x4
Protocol: (1) SCID mouse and colorectal cancer cell line
SCID mice (C.B-17/Icr-scid, female, 6-weeks old) were purchased from CLEA Japan Inc. and reared in an SPF (specific pathogen free) equipment.
A colorectal cancer-derived cell line LS174T (purchased from ATCC) was used as the tumor cell and cultured using RPMI 1640 medium (manufactured by GIBCO, Invitrogen) containing 10% FBS (manufactured by HyClone) and 1% penicillin-streptomycin (manufactured by GIBCO, Invitrogen).
A xenograft model was prepared by intraperitoneally transplanting the cultured LS174T cell into the SCID mouse at a dose of 1×10^7 cells/200 μl/head.
An anti-A33 human antibody (KRN330) (hereinafter referred to as N26 antibody) comprising the heavy chain variable region represented by SEQ ID NO:23 and the light chain variable region represented by SEQ ID NO:25 was used as an anti-A33 human antibody.
5-FU (5FU Injection 250 Kyowa) was obtained from Kyowa Hakko Kirin Co., Ltd. and CPT-11 (Campto (registered trademark) Injection or Irinotecan Hydrochloride Injection) was obtained from YAKULT HONSHA CO., LTD. In the control group, a dilution medium of the anti-A33 human antibody (10 mM of sodium L-glutamate, 262 mM of D-sorbitol and 0.05 mg/ml of polysorbate 80, pH 5.5) was used.
Administration schedules of agents are shown in FIG. (A)(a) and FIG. 1(B)(a), respectively. After transplanting the cultured LS174 cell into the abdominal cavity of SCID mice on day 0, their body weights were measured on the next day of the transplantation (on day 1) to divide them into six groups in such a manner that the average body weight of each group became equal (A, B, E and F groups=seven animals per group, C and D groups=six animals per group).
The grouping day was regarded as the initial administration day, and thereafter, 5 mg/kg of an anti-A33 human antibody, 10 mg/kg of CPT-11 (irinotecan) or 50 mg/kg of 5-FU was administered into the mouse caudal vein at a dose of 10 ml/kg, four times (on day 1, day 8, day 15 and day 22) at a frequency of once a week, and the surviving period was monitored. On the same day of the drug administration, an adjuvant was intravenously administered to the control group.
Survival curve of each administration group was plotted by the Kaplan-Meier method and the survival curves of each group were compared using log-rank test, with the results shown in FIG. 1(A)(b) and FIG. 1(A)(c) and FIG. 1(B)(b) and FIG. 1(B)(c). In this connection, though the results of FIG. 1(A)(b) and FIG. 1(A)(c) and FIG. 1(B)(b), and FIG. 1(B)(c) are separately shown, these were carried out in the same test, and results of the control group and the N26 antibody (5 mg/kg) group in FIG. 1(A)(b) and FIG. 1(A)(c) are identical to those in FIG. 1(B)(b) and FIG. 1(B)(c).

Row | Structure (SMILES) | antitumor effect (tumor volume), FIG. 2(a) ([1]; nude rat LS174T s.c., N26 5 mg/kg, 5-FU 100 mg/kg, i.v. day 0, 7, 14, 21) | surviving period median (median survival time: MST) [2] | prolongation of surviving period in comparison with the adjuvant alone group [2] | antitumor effect (tumor volume), FIG. 2(b) ([1]; nude rat LS174T s.c., N26 5 mg/kg, oxaliplatin 15 mg/kg, i.v. day 0, 7, 14, 21) | body weight loss ([1]; nude rat, oxaliplatin 15 mg/kg administration group)
1 | O=c1[nH]cc(F)c(=O)[nH]1 [5-FU, 5-fluorouracil] | significant antitumor effect | 24 days | prolongation of surviving period was not found |  | 
2 | CCc1c2c(nc3ccc(OC(=O)N4CCC(N5CCCCC5)CC4)cc13)-c1cc3c(c(=O)n1C2)COC(=O)[C@]3(O)CC [CPT-11, irinotecan] |  | 41 days | significant prolongation of surviving period |  | 
3 | O=C1[O][Pt]2([NH][C@@H]3CCCC[C@H]3[NH]2)[O]C1=O [oxaliplatin] |  |  |  | slight antitumor effect | significant body weight loss
